Assay results: patent publication US8883745B2, “C—glycolipids with enhanced Th-1 profile” (New York University, priority 2006, dated 2014)

Tests used:
IL-4 = IL-4 levels in sera upon i.v. glycolipid administration to C57BL/6 mice (ELISA); type: in vivo; parameters: unit not given here; details: for IL-4 level, Total: total over hours 0-72
Procedure: (§1) Five- to six-week-old female C57BL/6 mice and BALB/c mice were purchased from Taconic. Each glycolipid was stored at 1 mg/ml in 100% DMSO. Mice were injected intravenously with 1 μg of each glyocolipid diluted in 200 μL sterile phosphate buffered saline (PBS). At indicated time points, sera were collected from each animal, and concentrations of IFN-γ, IL-4, and IL-12 in the sera were evaluated by enzyme-linked immunosorbent assay (ELISA). Serum concentrations of IFN-γ, IL-4, and IL-12 were evaluated using an ELISA kit (eBioscience, San Diego, Calif.). Briefly, 96 well flat-bottom ELISA plates (NUNC) were coated with capture antibody according to the manufacture's recommendation and incubated overnight at 4° C. The plates were washed with PBS+0.05% Tween 20 (PBS-T), then incubated with manufacturer provided blocking solution for 1 hr at room temperature to block non-specific binding sites. After washing with PBS-T, sera diluted 1:10 was added to the wells and incubated for 2 hrs at room temperature. Plates were then incubated at room temperature for 1 hr with biotintylated detection antibody, washed, incubated with avidin conjugated to horse radish peroxidase (HRP) for 30 min at room temperature, washed, and finally incubated with tetramethylbenzidine substrate solution in the dark for 10 minutes at room temperature. The antibodies, avidin-HRP, and substrate solution were all diluted according to the manufacture's recommendation. Reactions were stopped with 2.0N sulfuric acid and the cytokine concentration in each well was determined by comparing the absorbance at 450 nm in each well to known standards. The levels of Th1- and Th2-type cytokines were determined in two different genetic backgrounds, i.e., in C57BL/6 mice and BALB/c mice. The following compounds were administered: A=compound (A-1 trans-conformer), B=compound (A-2), C=compound (A-3), D=compound (A-4), E=compound (A-5), Z=control (PBS alone), CRONY=α-C-GalCer, KRN=α-GalCer, GCK109 (A-1 trans-conformer), GCK151 (A-1 cis-conformer), GCK152 (A-7). The levels of cytokines were measured at 0, 2, 6, 12, 24, 48, and 72 hours after the compound administration. The levels of Th1-type cytokines IFN-γ and IL-12 are summarized in FIGS. 2A-C and 3A-C, respectively. Table 7 provides IFN-γ/IL-4 and IL-12/IL-4 ratios for various compounds, which can be used as indicators of their ability to selectively stimulate Th1-type immune responses.

IFN-γ = IFN-γ levels in sera upon i.v. glycolipid administration to C57BL/6 mice (ELISA); type: in vivo; parameters: IFN-γ levels, test 1 / IFN-γ levels, test 2 / IFN-γ levels, average / IFN-γ levels, Total / IFN-γ (B6): unit not given here; details: for IFN-γ/IL-4 (B6): C57BL/6, ratio calculated from Tables 1-6; for IFN-γ levels, average / IFN-γ levels, test 1 / IFN-γ levels, test 2 / IFN-γ levels, Total: C57BL/6, serum; for IFN-γ levels, Total: total over hours 0-72
Procedure: as §1

melanoma metastases = details: in vivo administration; cited from earlier work
[1] = system: rodent malaria parasites, P. yoeli and P. berghei; details: cited from earlier work
solid tumors = details: Phase I study; cited from earlier work
[2] = rodents and monkeys, independently of dosage; cited from earlier work
[3] = Solubility in an aqueous solution; type: physicochemical

## CCCCCCCCCCCCCC[C@@H](O)[C@@H](O)[C@H](CC[C@H]1O[C@H](CO)[C@H](O)[C@H](O)[C@H]1O)NC(=O)CCCCCCCCCCCCCCCCCCCOCCCCC [A-5]
IL-4; hour 0
  IL-4 level, average: 46
  IL-4 level, test 1: 46
  IL-4 level, test 2: 46
IL-4; hour 2
  IL-4 level, average: 308
  IL-4 level, test 1: 283
  IL-4 level, test 2: 333
IL-4; hour 6
  IL-4 level, average: 89
  IL-4 level, test 1: 75
  IL-4 level, test 2: 103
IL-4; hour 12
  IL-4 level, average: 45
  IL-4 level, test 1: 42
  IL-4 level, test 2: 48
IL-4; hour 24
  IL-4 level, average: 50
  IL-4 level, test 1: 46
  IL-4 level, test 2: 54
IL-4; hour 48
  IL-4 level, average: 46
  IL-4 level, test 1: 44
  IL-4 level, test 2: 48
IL-4; hour 72
  IL-4 level, average: 64.5
  IL-4 level, test 1: 69
  IL-4 level, test 2: 60
IL-4
  IL-4 level, Total: 649
IFN-γ
  IFN-γ/IL-4 (B6): 18
  IFN-γ levels, Total: 11775
IFN-γ; hour 0
  IFN-γ levels, average: 31
  IFN-γ levels, test 1: 31
  IFN-γ levels, test 2: 31
IFN-γ; hour 2
  IFN-γ levels, average: 112.5
  IFN-γ levels, test 1: 130
  IFN-γ levels, test 2: 95
IFN-γ; hour 6
  IFN-γ levels, average: 929
  IFN-γ levels, test 1: 930
  IFN-γ levels, test 2: 928
IFN-γ; hour 12
  IFN-γ levels, average: 2108
  IFN-γ levels, test 1: 2215
  IFN-γ levels, test 2: 2001
IFN-γ; hour 24
  IFN-γ levels, average: 8196.5
  IFN-γ levels, test 1: 7680
  IFN-γ levels, test 2: 8713
IFN-γ; hour 48
  IFN-γ levels, average: 295
  IFN-γ levels, test 1: 249
  IFN-γ levels, test 2: 341
IFN-γ; hour 72
  IFN-γ levels, average: 102
  IFN-γ levels, test 1: 101
  IFN-γ levels, test 2: 103

## CCCCCCCCCCCCCCCCCCCCCCCCCC(=O)N[C@@H](CC[C@H]1O[C@H](CO)[C@H](O)[C@H](O)[C@H]1O)[C@H](O)[C@H](O)CCCCCCCCCCCCCC [CRONY, reference compound]
Melanoma metastases
  improved activity against melanoma metastases (as compared to α-GalCer): 100 fold
IL-4; hour 0
  IL-4 level, average: 46
  IL-4 level, test 1: 46
  IL-4 level, test 2: 46
IL-4; hour 2
  IL-4 level, average: 464
  IL-4 level, test 1: 286
  IL-4 level, test 2: 642
IL-4; hour 6
  IL-4 level, average: 73
  IL-4 level, test 1: 48
  IL-4 level, test 2: 98
IL-4; hour 12
  IL-4 level, average: 34
  IL-4 level, test 1: 12
  IL-4 level, test 2: 56
IL-4; hour 24
  IL-4 level, average: 23
  IL-4 level, test 1: 16
  IL-4 level, test 2: 30
IL-4; hour 48
  IL-4 level, average: 11.5
  IL-4 level, test 1: 17
  IL-4 level, test 2: 6
IL-4; hour 72
  IL-4 level, average: 21.5
  IL-4 level, test 1: 15
  IL-4 level, test 2: 28
IL-4
  IL-4 level, Total: 674
[1]; in vivo administration
  improved activity against malaria (as compared to α-GalCer): 1000 fold
IFN-γ
  IFN-γ/IL-4 (B6): 17
  IFN-γ levels, Total: 11653
IFN-γ; hour 0
  IFN-γ levels, average: 31
  IFN-γ levels, test 1: 31
  IFN-γ levels, test 2: 31
IFN-γ; hour 2
  IFN-γ levels, average: 355.5
  IFN-γ levels, test 1: 359
  IFN-γ levels, test 2: 352
IFN-γ; hour 6
  IFN-γ levels, average: 1094.5
  IFN-γ levels, test 1: 1083
  IFN-γ levels, test 2: 1106
IFN-γ; hour 12
  IFN-γ levels, average: 2512.5
  IFN-γ levels, test 1: 2667
  IFN-γ levels, test 2: 2358
IFN-γ; hour 24
  IFN-γ levels, average: 6589.5
  IFN-γ levels, test 1: 6511
  IFN-γ levels, test 2: 6668
IFN-γ; hour 48
  IFN-γ levels, average: 777.5
  IFN-γ levels, test 1: 798
  IFN-γ levels, test 2: 757
IFN-γ; hour 72
  IFN-γ levels, average: 290
  IFN-γ levels, test 1: 279
  IFN-γ levels, test 2: 301
IFN-γ; C57BL/6, total from Table 2
  IFN-γ (B6): 11652

## CCCCCCCCCCCCCCCCCCCCCCCCCC(=O)N[C@@H](CO[C@H]1O[C@H](CO)[C@H](O)[C@H](O)[C@H]1O)[C@H](O)[C@H](O)CCCCCCCCCCCCCC [KRN, (2S,3S,4R)-1-O-(α-D-galactopyranosyl)-2-(N-hexacosanoylamino)-1,3,4-,-octadecanetriol, reference compound]
Solid tumors
  effect in patients with solid tumors: little effect
[2]
  toxicity: does not induce toxicity
IL-4; hour 0
  IL-4 level, average: 46
  IL-4 level, test 1: 46
  IL-4 level, test 2: 46
IL-4; hour 2
  IL-4 level, average: 3915
  IL-4 level, test 1: 3584
  IL-4 level, test 2: 4246
IL-4; hour 6
  IL-4 level, average: 183
  IL-4 level, test 1: 122
  IL-4 level, test 2: 244
IL-4; hour 12
  IL-4 level, average: 102.5
  IL-4 level, test 1: 103
  IL-4 level, test 2: 102
IL-4; hour 24
  IL-4 level, average: 18
  IL-4 level, test 1: 20
  IL-4 level, test 2: 16
IL-4; hour 48
  IL-4 level, average: 1
  IL-4 level, test 1: 2
  IL-4 level, test 2: 0
IL-4; hour 72
  IL-4 level, average: 0.5
  IL-4 level, test 1: 0
  IL-4 level, test 2: 1
IL-4
  IL-4 level, Total: 4267
[3]
  solubility in an aqueous solution relative to the tested compounds of the invention: more soluble
[1]; administration to mice
  anti-malaria activity (inhibition of intra-hepatocytic stages): strong anti-malaria activity
IFN-γ
  IFN-γ/IL-4 (B6): 3
  IFN-γ levels, Total: 10686
IFN-γ; hour 0
  IFN-γ levels, average: 31
  IFN-γ levels, test 1: 31
  IFN-γ levels, test 2: 31
IFN-γ; hour 2
  IFN-γ levels, average: 874.5
  IFN-γ levels, test 1: 938
  IFN-γ levels, test 2: 811
IFN-γ; hour 6
  IFN-γ levels, average: 1919
  IFN-γ levels, test 1: 1811
  IFN-γ levels, test 2: 2027
IFN-γ; hour 12
  IFN-γ levels, average: 5352.5
  IFN-γ levels, test 1: 5179
  IFN-γ levels, test 2: 5526
IFN-γ; hour 24
  IFN-γ levels, average: 2216
  IFN-γ levels, test 1: 2214
  IFN-γ levels, test 2: 2218
IFN-γ; hour 48
  IFN-γ levels, average: 126
  IFN-γ levels, test 1: 252
  IFN-γ levels, test 2: 0
IFN-γ; hour 72
  IFN-γ levels, average: 166
  IFN-γ levels, test 1: 332
  IFN-γ levels, test 2: 0
